Entries after “also recorded” stand apart in the source; their conditions may differ.
Experiments:
Format in all cases: cell-based, human
[1] = tested on: T-cell clone; test: Flow cytometric analysis of T-cell clones; details: peptide-specific T-cell clone, anti-CD4-FITC / CD8-PE staining
Description: The T-cell clone was double-stained with anti-human CD4-FITC and CD8-PE antibodies or isotype controls (mouse IgG-FITC and IgG-PE) (BD PharMingen). The cells were then examined by flow cytometric analysis (Chen et al., 1997). More than 99% of the T-cell population were CD4-positive. Flow cytometric analysis verified that the T-cell clones were exclusively CD4-positive (FIG. 9A and FIG. 9B). Similar results were obtained from four different T916-specific T-cell clones. Taken together, the findings indicate that HLA-DR7-restricted epitopes reside in clones 8 and 35 and induce hTRT-specific human CD4+ T-cell responses.

[2] = tested on: peptide-specific CD4+ T-cell clones; test: Specificity and MHC restriction of peptide-specific T-cell clones (antibody blocking)
Method: The T916-positive T-cell clone, T631-positive T-cell or T672-positive T-cell (2×10^4 cells/well) were re-stimulated with autologous PBMC-derived DC (1×10^3/well) (Zhou et al., 1996) pulsed with T916, T631, T672 or irrelevant 15-mer peptides derived from HER-2 (SEQ.ID.NO.78, LSTDVGSCTLVCPLH) and EBV (SEQ.ID.NO.79, AYFMVFLQTHIFAEV) at the same concentration of 20 μg/ml in the presence of anti-HLA-DR (G46.4), anti-HLA-ABC (class I, G46.2.6), anti-CD4, or anti-CD8 (20 μg/ml, BD PharMingen). 48-72 hr later, GM-CSF release and [^3H]-thymidine incorporation of the T-cells were measured.
Further, antibody blocking assays were used to test whether the T-cell responses to peptides were MHC class II-restricted. […] Flow cytometric analysis of the responses to T-cell clones (FIG. 14A-FIG. 14F) confirmed clones were CD4-positive and CD 8-negative.

[3] = tested on: HLA-DR7+/hTRT+ LCL cells; test: T-cell direct responses to hTRT-positive cells
Method: The T-cells (5×10^3/well) were co-cultured with the irradiated HLA-DR7+/hTRT+ LCL cells (1×10^4/well) in the presence or absence of the anti-HLA-DR antibody (20 μg/ml). IFN-γ production of the T-cells was monitored by ELISPOT assay and cell proliferation was measured by [^3H]-thymidine incorporation compared with anti-DR sample.

[4] = tested on: Donor's peripheral blood mononuclear cells (PBMCs); test: Peptide T-cell proliferation assay with donor PBMC; details: peptide 20 μg/ml; positive if cpm at least 2.5 times PBMC without peptide
Method: Donor's peripheral blood mononuclear cells (PBMCs) were plated in 96-well plates (Costar) at 200,000 cells/well in AIM-V media (Gibco). Peptides were added into each well at the concentration of 20 μg/ml. After a week of incubation, the culture medium was removed and cells were resuspended in AIM-V media, seeded onto test plates and re-stimulated with autologous irradiated (2,000-6,000 rads) PBMC pulsed with the same peptides used in the primary stimulation (20 μg/ml). On day 2 of the re-stimulation, [^3H]-thymidine (1 uCi/well) was added to the test plates, and its incorporation by T-cells was measured on day 3. […] T-cell clones were established from positive T-cell lines by limiting dilution.
Because Th cells generally prefer to recognize peptides of about 15 residues in length, ten predicted peptides corresponding to promiscuous binding motifs of 15 mer or longer were synthesized and purified (Table 2). Human T-cell responses to these peptides were assessed by isolating PBMC from HLA-typed healthy donors with HLA-DR1, DR3, DR15, or other alleles and seeding them into 96-well plates that were subsequently stimulated with each peptide. After a week of stimulation, the cultures were tested for their capacity to respond to the peptides presented by autologous PBMC.

[5] = tested on: recombinant hTRT protein; test: T-cell recognition of natively processed hTRT protein presented by autologous DC
Description: A recombinant hTRT protein and an irrelevant Neu protein were produced and used to pulse PBMC-derived DC. Recombinant hTRT and Neu(extracellular domain)-Fc fusion proteins, were produced in SF9 insect cells by use of a baculovirus expression system (Gibco), purified by affinity binding to Protein A (Sigma), and tested by Western blot analysis with anti-hTRT (Santa Cruz) or anti-Neu (Oncogene) antibodies, respectively.
The T916-specific T-cells, T631-specific T-cells or T672-specific T-cells (2×10^4/well) were stimulated with irradiated autologous PBMC-derived DC (Zhou et al., 1996) (2×10^3/well) pulsed with recombinant hTRT-Fc proteins (1 μg/ml) in the presence or absence of anti-HLA-DR antibodies (20 μg/ml). The T-cell clones were also stimulated with DC pulsed with irrelevant recombinant Neu-Fc proteins (1 μg/ml). Recombinant hTRT Fc fusion proteins and Neu (extracellular domain)-Fc proteins were produced from […], purified with a Protein-A purification kit (Pierce), and confirmed by Western blot analysis with anti-hTRT (Santa Cruz) or anti-Neu (Oncogene) antibodies. 48 hr later, [^3H]-thymidine incorporation of the T-cells was then measured.
The ability of these T-cell clones to recognize naturally processed antigen in the form of recombinant hTRT protein was tested in experiments in which autologous PBMC or DC were used as APC and recombinant hTRT proteins as a source of antigen (FIG. 16).

[6] = tested on: peptide-specific CD4+ T-cell clones; test: Peptide titration of T-cell clones; details: autologous PBMCs
Method: To evaluate the avidity of hTRT916 and hTRT672 T-cell clones for their ligands, peptide titration curves were generated with autologous PBMCs. The maximal cell proliferation of the hTRT916 T-cell clone was obtained at a peptide concentration of 10 μg/ml, compared with only at a peptide concentration of 1 μg/ml for the hTRT672 T-cell clone (FIG. 7).
Yet further, the avidity of the hTRT631 T-cell clone for its ligand was also evaluated. Peptide titration curves were generated with autologous PBMCs. The half maximal cell proliferation of the hTRT631 T-cell clone was obtained at a peptide concentration of 0.1 μg/ml (FIG. 8).
The effectiveness of antitumor immunotherapy based on CD8+ and CD4+ T-cells depends on the ability of the latter to recognize naturally processed antigen presented by APC. This property depends in turn on correct processing of the epitope in the MHC class II pathway and the avidity of the epitope for its MHC/TCR-complex (Kobayashi, 2000). To determine whether the newly identified peptides were naturally processed antigens, the avidity of the specific T-cell clones for their ligands was evaluated. Peptide titration curves were generated with autologous DC as APC. For peptides hTRT631, hTRT766, hTRT787, the peptide concentrations required to obtain half of the maximal proliferation exceeded 1.0 μM (FIG. 15A-FIG. 15F).

For GTAFVQMPAHGLFPW [Peptide T916], the “T-cell population CD4-positive” value [1] was “More than 99%”, the “response of T-cells to autologous PBMC pulsed with peptide” value [2] was “dosage-dependent manner” and the “response of the peptide-specific T-cells to irrelevant peptides” value ([2]; irrelevant 15-mer peptides (HER-2, EBV/EBNA1) or non-corresponding hTRT peptides, 20 μg/ml) was “did not respond”. The “restriction of T-cell response (antibody blocking)” value ([2]; peptide-pulsed autologous APC with anti-HLA-DR, anti-HLA class I, anti-HLA-DQ, anti-CD4 or anti-CD8 antibodies) was “both CD4- and HLA-DR-restricted; also recorded: MHC-II restricted epitopes”, the “response of peptide-specific CD4+ T-cells to hTRT+/DR7+ LCL” value ([3]; IFN-γ ELISPOT and [3H]-thymidine incorporation) was “active proliferation and production of INF-γ” and the “effect of anti-HLA-DR antibody on T-cell response to hTRT+/DR7+ LCL” value ([3]; antibody 20 μg/ml) was “drastically inhibited”. The “response of peptide-specific CD4+ T-cells to hTRT+ LCL (DR3+)” value ([3]; different class II genotype) was “did not respond”, the “proliferative T-cell responses from the donors' T-cells” value [4] was “elicited proliferative T-cell responses” and the “epitope classification (naturally processed or cryptic)” value [5] was “are processed”. For the same sequence, the “response of peptide-specific T-cells to irrelevant Neu protein presented by autologous DC” value ([5]; Neu-Fc 1 μg/ml) was “did not respond”, the “recognition of hTRT protein after processing and presentation by autologous APC” value ([5]; peptide-specific T-cell clone, DC or PBMC pulsed with recombinant hTRT protein) was “recognize the hTRT proteins” and the “peptide concentration at maximal cell proliferation of the T-cell clone” value [6] was 10 µg/mL.
